# Test results taken from US20260028404A1 (UNIVERSITY OF KANSAS, priority 2022, published 2026).
# “Also recorded” adds a separate entry of the source.
# Tests used:
# AT84 model = conditions: low-dose GA (300 μg) alone, previous study; cited from earlier work
# CT26wt tumors = assay: Example 6 syngeneic CT26wt model with anti-mPD-L1; assay type: in vivo, BALB/c mice; conditions: of 8 animals on Day 0
# Method: FIG. 14. […] Female BALB/c mice were implanted with CT26wt tumor cells into the mammary fat pad on Day 0 and were treated as depicted in the figure legends. […] The number of animals alive on Days 0 (implantation) and 45 (study termination), are shown for each group in parenthesis.
# Each experimental group contained eight female BALB/c mice after randomization. On Day 0, 0.5×10^6 CT26wt murine colon adenocarcinoma tumor cells in 100 μl PBS were implanted into the left mammary fat pad of each mouse.
# After animals had been randomized on Day 6, treatments were initiated on the same day. […] All groups were evaluated versus the Control, which were animals that had been treated with 25 μl/mouse Vehicle Control (4% mannitol) i.t. in combination with 10 mg/kg Isotype Control i.p.
# During the course of the study, individual animals were either euthanized prior to study end without performing a necropsy, after they had reached humane endpoint, or were found dead. On Day 45, the study was terminated and all remaining animals were euthanized without performing a necropsy.
# [1] = test system: differentially expressed genes; assay: CT26 tumor RNA sequencing; assay type: in vivo, BALB/c mice; conditions: intratumoral GA treatment
# Method: RNA isolation: RNA was isolated from the tumor as previously described. 22.83Briefly, tumor pieces were stored in RNAlater solution at room temperature for at least one day and then at 4° C. until RNA isolation. Tumor pieces were removed from RNAlater solution and homogenized in 10 mL TRIzol reagent (38% phenol, 0.8 M guanidine thiocyanate, 0.4 M ammonium thiocyanate, 0.1 M sodium acetate, 5% glycerol). Homogenate was divided into 1 mL, 100 μl BCP (Molecular Research Center #BP 151, Cincinnati, OH) was added, shaken vigorously 15 seconds and centrifuged 12,000×g, 10 minutes, 4° C. […] RNA was quantified by Qubit™ using the RNA High Sensitivity Assay Kit (Invitrogen™ #Q32852, Thermo Fisher Scientific Corporation, Eugene, OR) and RNA quality was analyzed using the Agilent 2200 TapeStation (Waldbronn, Germany).
# RNA sequencing: The mRNA library preparation was performed with the NEBNext® Stranded mRNA library kit (New England Biolabs, Inc. #E7760, Ipswich, MA), tagged with a unique dual index sequence, and qPCR quantification of the library pool was performed before sequencing. Sequencing was performed on an Illumina NextSeq2000 P3 with single read 75 bp read lengths (KU Genome Sequencing Core). The reads were aligned with Mus musculus UCSC mm9 reference genome using RNA-Seq Alignment workflow (2.0.2, Illumina, San Diego, CA). […]
# Ki-67 = Ki-67 IHC of pre- and post-treatment tumor specimens; assay type: in vivo, human; conditions: for Ki67 results, biopsy: before treatment
# Method: Ki-67 and Caspase-3 levels: To potentially detect an early signal for anti-tumoral efficacy of Copaxone® treatment, changes in the level of Ki-67 and caspase-3 before and after treatment with Copaxone® were evaluated by IHC. FFPE tumor sections from pre-and post-treatment specimens were mounted on the same slide and stained using Caspase 3 (Biocare, Pacheco, CA) and Ki-67 (MIB-1) (Dako, Carpinteria, CA).
substance,measurement,setting,value
Glatiramer acetate [GA],tumor growth / tumor size,AT84 model,significantly increased tumor growth; also recorded: increases tumor size
same,number of animals alive on Day 45 (study termination),CT26wt tumors,0
same,gene expression in the tumors,[1],little discernable effect on gene expression
same,"Ki67 results, treated","Ki-67; patient BCCa-Left Nasal Ala, after 2 Copaxone injections",60%
same,"Ki67 results, biopsy",Ki-67; patient BCCa-Left Nasal Ala,65%
same,"Ki67 results, treated","Ki-67; patient BCCa-Right Flank, after 3 Copaxone injections",44%
same,"Ki67 results, biopsy",Ki-67; patient BCCa-Right Flank,62%
same,"Ki67 results, treated","Ki-67; patient BCCa-Right Post. Neck, after 2 Copaxone injections",45%
same,"Ki67 results, biopsy",Ki-67; patient BCCa-Right Post. Neck,70%
same,"Ki67 results, treated","Ki-67; patient SCCa-Right Cheek, after 1 Copaxone injection",45%
same,"Ki67 results, biopsy",Ki-67; patient SCCa-Right Cheek,55%
same,"Ki67, marker of cell proliferation (overall)","Ki-67; patients, biopsy vs treated tumor",Consistent reductions in Ki67
